# Laboratory results published in patent US20100009970A1, “COMPOSITIONS AND METHODS FOR TREATMENT OF VIRAL DISEASES” (Combinatorx (Singapore) Pte. Ltd., priority 2008, published 2010).
# Values joined by “and” are separate entries in the source; they are usually repeats but may differ in a detail not shown here. Identical values can stand only once. “Also recorded” adds a separate entry of the source. Counter-ions that a name gives are not always drawn. Like-named read-outs stand apart in the source and are kept apart here.
# Assays:
# [1] = in vivo
# NRI = NRI (Homo sapiens, UniProt P23975); type: binding
# [2] = test system: Huh7 cells expressing a subgenomic RNA replicon of Con1 (genotype 1b) sequence origin
# in vitro = conditions: human
# [3] = test system: Huh7 cells expressing a subgenomic RNA replicon of Con1 (genotype 1b) sequence origin; test: microbe, parasite or virus in culture; conditions: Hepatitis C virus
# SRI = SRI (Homo sapiens, UniProt P31645); test: BBB/Neurotransmitter Binding: SRI
# [4] = general description; cited from earlier work
# influenza A/PR/8/34 = test system: influenza A/PR/8/34; parameters: species or system C57/BL6 mice; conditions: mouse, in vivo
# [5] = Huh-7, read-out: IC50 (uM) [SG]
# [6] = Huh-7, read-out: Max Effect @CC30 (inhibition)
# [7] = Huh-7, read-out: Max Effect@CC30 (inhibition)
# [8] = Huh-7, read-out: Max effect @CC30 (%)
# [9] = GETYPE1B, Huh-7, 72 h, read-out: Max Effect @CC30 (inhibition)
# [10] = Huh-7, 48 h, read-out: Max Effect
# Chain of NRI (P23975 whole entry): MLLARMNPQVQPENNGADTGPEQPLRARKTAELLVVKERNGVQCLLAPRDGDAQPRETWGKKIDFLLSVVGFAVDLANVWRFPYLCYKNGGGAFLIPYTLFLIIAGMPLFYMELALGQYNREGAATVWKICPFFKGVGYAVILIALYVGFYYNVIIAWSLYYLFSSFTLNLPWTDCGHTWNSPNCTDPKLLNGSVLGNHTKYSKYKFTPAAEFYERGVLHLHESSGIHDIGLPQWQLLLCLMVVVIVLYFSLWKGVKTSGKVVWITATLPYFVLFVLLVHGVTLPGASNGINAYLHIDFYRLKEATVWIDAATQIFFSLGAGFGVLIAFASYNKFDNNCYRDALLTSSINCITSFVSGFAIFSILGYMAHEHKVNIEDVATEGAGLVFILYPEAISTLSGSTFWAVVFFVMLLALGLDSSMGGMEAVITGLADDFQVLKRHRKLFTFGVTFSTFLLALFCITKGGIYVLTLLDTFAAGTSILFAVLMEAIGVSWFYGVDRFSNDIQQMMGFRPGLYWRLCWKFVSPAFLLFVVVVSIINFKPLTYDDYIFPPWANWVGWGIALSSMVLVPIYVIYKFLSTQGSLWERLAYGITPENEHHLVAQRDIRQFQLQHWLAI
# Chain of SRI (P31645 whole entry): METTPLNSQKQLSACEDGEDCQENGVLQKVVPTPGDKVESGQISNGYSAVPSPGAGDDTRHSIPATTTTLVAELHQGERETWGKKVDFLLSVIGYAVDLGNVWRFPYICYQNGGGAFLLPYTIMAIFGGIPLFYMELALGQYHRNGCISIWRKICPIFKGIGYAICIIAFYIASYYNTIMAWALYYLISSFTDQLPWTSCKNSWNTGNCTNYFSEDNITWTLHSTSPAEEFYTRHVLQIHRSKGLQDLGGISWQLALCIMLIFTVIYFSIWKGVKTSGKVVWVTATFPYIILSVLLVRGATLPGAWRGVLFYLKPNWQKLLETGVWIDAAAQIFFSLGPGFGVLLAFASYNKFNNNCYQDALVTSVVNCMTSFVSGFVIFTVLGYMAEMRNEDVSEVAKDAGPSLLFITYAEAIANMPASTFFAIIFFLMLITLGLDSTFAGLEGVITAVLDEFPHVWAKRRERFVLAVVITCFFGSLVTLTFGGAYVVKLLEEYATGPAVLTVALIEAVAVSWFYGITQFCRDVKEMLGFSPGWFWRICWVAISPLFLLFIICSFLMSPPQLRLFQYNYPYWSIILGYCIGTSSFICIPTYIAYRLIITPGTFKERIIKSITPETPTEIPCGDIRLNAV
Compound,IC50 ([2]; read-out: IC50 (uM) [SG]),CC50 (Huh7 parental cells),CC50 (in vitro; CC50 (uM)),CC50 (in vitro; CC50 (uM) [SG]),IC90 ([3]; Huh-7),"IC50 [3, 5]","Emax [3, 7]","Emax [3, 8]",CC50 (Huh7 parental cells; human),also measured
CN[C@H]1CC[C@@H](c2ccc(Cl)c(Cl)c2)c2ccc(C(N)=O)cc21 [Sertraline A-ring carboxamide],1.8 ± 0.18 µM,16.2 ± 0.57 µM,–,–,–,–,–,–,–,"Pharmcokinetics: Brain levels compared with sertraline [1]: IC50, Brain levels lower; Pharmcokinetics: overall assessment [1]: Optimal PK. Liver; BBB/Neurotransmitter Binding (nM) NRI (NRI): 410 nM; IC90 [2]: 5.4 ± 1.81 µM; Max Effect@CC30 (inhibition) [2]: 94.5 ± 0.7%; Max effect @CC30 (%) [2]: 94.5 ± 0.7%; IC50 ([2]; read-out: SA IC50): 1.8 µM"
"CN[C@H]1CC[C@@H](c2ccc(Cl)c(Cl)c2)c2ccc(CN)cc21 [Sertraline A-Ring Methanamine, (1S,4S)-7-(aminomethyl)-4-(3,4-dichlorophenyl)-N-methyl-1,2,3,4-tetrahydronaphthalen-1-amine]",1.67 µM,–,3.7 µM,3.7 µM,3.28 µM,1.59 µM,85.9%,85.9%,3.68 µM,"IC50 ([3]; Huh-7): 1.6 µM; Emax [3, 6]: 85.9%; IC50 ([3]; Huh-7, read-out: SA IC50 (uM)): 1.59 µM"
"CN[C@H]1CC[C@@H](c2ccc(Cl)c(Cl)c2)c2ccccc21 [Sertraline HCL, Sertraline HCl, reference compound]",–,–,–,11.7 ± 2.03 µM,–,–,62.6 ± 21.5%,–,11.3 µM,"CC50 at 72 h (in vitro; CC50 (uM)): 11.8 ± 2.09 µM; Emax [3, 9]: 62 ± 11.2%"
CNC1CCC(c2cccc(OC)c2)c2ccccc21 (centres unmarked) [Sertraline B-ring m-Methoxy],–,> 50 µM,–,–,–,–,–,–,–,Max Effect@CC30 (inhibition) [2]: 27.70%
"CN[C@H]1CC[C@@H](c2ccc(Cl)c(Cl)c2)c2ccc(C[S+](C)[O-])cc21 (stereo partly drawn) [(1S,4S)-4-(3,4-dichlorophenyl)-N-methyl-7-(methylsulfinylmethyl)-1,2,3,4-tetrahydronaphthalen-1-amine]",1.55 µM,–,–,14.8 ± 0.97 µM,5.13 ± 0.16 µM,1.34 ± 0.26 µM,96.5 ± 2.6%,97.9 ± 1.1%,15.3 µM,"BBB/Neurotransmitter Binding (nM) NRI (NRI): 450 nM; IC50 ([3]; Huh-7, read-out: SA IC50 (uM)): 1.46 ± 0.23 µM; IC90 [2]: 5.17 µM and 5.15 µM; BBB/Neurotransmitter Binding (nM) SRI (SRI): 340 nM"
"CN[C@H]1CC[C@@H](c2ccc(Cl)c(Cl)c2)c2ccc(NS(C)(=O)=O)cc21 [Sertraline (Reverse) Methanesulfonamide, N-((5S,8S)-5-(3,4-dichlorophenyl)-8-(methylamino)-5,6,7,8-tetrahydronaphthalen-2-yl)methanesulfonamide]",–,–,12.9 ± 0.3 µM,12.9 ± 0.3 µM,–,3.99 ± 0.8 µM,83.3 ± 20.2%,83.3 ± 20.2%,–,"Pharmcokinetics: Brain levels compared with sertraline [1]: lower sertraline; Pharmcokinetics: Liver levels compared with sertraline [1]: much greater; Pharmcokinetics: overall assessment [1]: Optimal PK, Liver levels; BBB/Neurotransmitter Binding (nM) NRI (NRI): 60 nM; CC50 (in vitro; CC50): 12.9 µM; Emax [3, 9]: 83.3 ± 20.2%; IC50 ([3]; Huh-7, 48 h): 6.43 µM; Emax [3, 10]: 95%; IC50 ([3]; Huh-7, 72 h): 3.99 ± 0.8 µM; IC50 ([3]; Huh-7, read-out: SA IC50 (uM)): 3.99 ± 0.8 µM"
"CNC1CCC(c2ccccc2OC)c2ccccc21 (centres unmarked) [Sertraline B-ring Ortho Methoxy, 4-(2-methoxyphenyl)-N-methyl-1,2,3,4-tetrahydronaphthalen-1-amine]",–,–,58.6 µM,58.6 µM,–,–,–,–,> 50 µM,–
"CN[C@H]1CC[C@@H](c2ccc(Cl)c(Cl)c2)c2ccc(CS(C)(=O)=O)cc21 [(1S,4S)-4-(3,4-dichlorophenyl)-N-methyl-7-(methylsulfonylmethyl)-1,2,3,4-tetrahydronaphthalen-1-amine]",2.33 µM,–,13 µM,13 µM,7.89 µM,1.68 µM,84.8%,84.8%,14.2 µM,"IC50 ([3]; Huh-7): 1.68 µM; IC50 ([3]; Huh-7, read-out: SA IC50 (uM)): 1.68 µM"
"CSc1ccc(Oc2ccc(S(N)(=O)=O)cc2CN(C)C)cc1C [UK-416244, 3-((dimethylamino)methyl)-4-(3-methyl-4-(methylthio)phenoxy)benzenesulfonamide, reference compound]",1.74 µM,–,327 µM,> 50 µM,6.17 ± 3.23 µM,1.41 ± 0.2 µM,97.2 ± 1.4%,97.2 ± 1.4%,–,"Pharmcokinetics: Brain levels compared with sertraline [1]: lower than sertraline; Pharmcokinetics: Liver levels, fold over IC50 [1]: sertraline, 511 fold over; Pharmcokinetics: overall assessment [1]: Optimal PK, Liver; Emax [3, 9]: 97%; IC50 ([3]; Huh-7): 1.41 µM; IC50 ([3]; Huh-7, 72 h): 1.63 µM; IC90 ([3]; Huh-7, 72 h): 9.86 µM; IC50 ([3]; Huh-7, read-out: SA IC50 (uM)): 1.41 ± 0.2 µM; IC90 [2]: 6.55 µM; BBB/Neurotransmitter Binding (nM) SRI (SRI; Table 19): <5 nM"
"CN(C)[C@H]1CC[C@@H](c2ccc(Cl)c(Cl)c2)c2ccc(C(=O)NC3CC3)cc21 [N,N-Dimethyl Sertraline A-Ring Reverse Cyclopropane Carboxam] [(5S,8S)—N-cyclopropyl-5-(3,4-dichlorophenyl)-8-(dimethylamino)-5,6,7,8-tetrahydronaphthalene-2-carboxamide]",8.63 µM,–,–,–,–,–,–,–,18.2 µM,–
"CN(C)[C@H]1CC[C@@H](c2ccc(Cl)c(Cl)c2)c2ccc(C(N)=O)cc21 [(5S,8S)-5-(3,4-dichlorophenyl)-8-(dimethylamino)-5,6,7,8-tetrahydronaphthalene-2-carboxamide]",3.18 µM,–,20.7 µM,21.7 ± 1.44 µM,8.77 ± 0.05 µM,2.62 ± 0.48 µM,94.3 ± 0.7%,–,23.7 µM,"IC50 ([3]; Huh-7): 2.96 µM; Emax [3, 6]: 94.8%; IC90 [2]: 8.73 µM"
"CC(=O)OC[C@H]1O[C@@H]([S-])[C@H](OC(C)=O)[C@@H](OC(C)=O)[C@@H]1OC(C)=O.CCP(CC)CC.[Au+] [Auranofin, reference compound]",–,–,–,–,–,–,–,–,–,solubility in water (in words) [4]: insoluble in water; IC50 [2]: 1.07 µM
CNC1CCC(c2ccccc2OC)c2ccccc21 (centres unmarked) [Sertraline B-Ring Ortho-Methoxy],–,> 22.3 µM,–,–,–,–,–,–,–,Max Effect [2]: 24%; Synergy Score [2]: 0.81
"CN[C@H]1CC[C@H](c2ccc(Cl)c(Cl)c2)c2ccccc21.Cl [(1S,4R) Sertraline Hydrochloride]",–,7.51 ± 0.8 µM,–,–,–,–,–,–,–,Max Effect@CC30 (inhibition) [2]: 50 ± 17.4%
"CN[C@H]1CC[C@@H](c2ccc(Cl)c(Cl)c2)c2ccccc21 [Sertraline, sertraline, reference compound]",–,–,7.98 µM,–,11.3 µM,–,–,62.6 ± 21.5%,7.7 µM,"Emax [3, 6]: 68.5%; IC90 [2]: 9.65 µM; Max Effect@CC30 (inhibition) [2]: 75.12%; effect on survival rate (in words) (influenza A/PR/8/34): dose dependant increase in survival rate; also recorded: improves survival rate"
CNC1CCC(c2cccs2)c2ccccc21 (centres unmarked) [Sertraline B-ring 2-Thiophene],52.3 µM,88.5 µM,–,–,–,–,–,–,–,Max Effect@CC30 (inhibition) [2]: 42%
"CNCc1cc(S(N)(=O)=O)ccc1Oc1ccc(SC)c(C)c1 [Compound 48, 4-(3-methyl-4-(methylthio)phenoxy)-3-((methylamino)methyl)benzenesulfonamide]",2.26 ± 0.11 µM,–,39.6 µM,39.6 µM,10 µM,2.33 µM,95.5%,95.5%,> 50 µM,"IC50 ([3]; Huh-7): 2.33 µM; IC50 ([3]; Huh-7, read-out: SA IC50 (uM)): 2.33 µM; IC90 [2]: 8.26 ± 2.49 µM"
"CSc1ccc(Oc2ccc(Br)cc2CN(C)C)cc1C [Compound 9, (5-bromo-2-(3-methyl-4-(methylthio)phenoxy)phenyl)-N,N-dimethylmethanamine]",–,–,–,54.8 µM,–,14.5 µM,79%,–,> 50 µM,–
"CN[C@H]1CC[C@@H](c2ccc(Cl)c(Cl)c2)c2ccccc21.Cl [(1R,4S) Sertraline Hydrochloride]",–,14.2 ± 0.16 µM,–,–,–,–,–,–,–,Max Effect@CC30 (inhibition) [2]: 90.8 ± 1.6%; IC90 ([2]; Hydrochloride): 12.1 ± 0.83 µM
"Cl.N[C@H]1CC[C@@H](c2ccc(Cl)c(Cl)c2)c2ccccc21 [(1S,4S)-Desmethyl Sertraline, Hydrochloride]",–,6.68 µM,–,–,–,–,–,–,–,IC50 [2]: 5.35 µM; Max Effect [2]: 98%; Synergy Score [2]: 2.14; TI (CC50/IC50) [2]: 1.247
"CN[C@H]1CC[C@@H](c2ccc(Cl)c(Cl)c2)c2ccc(S(=O)(=O)NC)cc21 [Sertraline Sulfonamide, (5S,8S)-5-(3,4-dichlorophenyl)-N-methyl-8-(methylamino)-5,6,7,8-tetrahydronaphthalene-2-sulfonamide]",–,–,13.04 ± 0.1 µM,13.04 ± 0.1 µM,–,6.87 ± 0.2 µM,40.5 ± 5%,–,–,"CC50 (in vitro; CC50): 11.6 µM; Emax [3, 9]: 40.5 ± 5%; IC50 ([3]; Huh-7, 48 h): 7.26 µM; Emax [3, 10]: 94%; IC50 ([3]; Huh-7, 72 h): 6.87 ± 0.2 µM; Synergy Score [2]: 0.43; TI (CC50/IC50) [2]: 1.605"
"CN[C@H]1CC[C@@H](c2ccc(Cl)c(Cl)c2)c2ccc(S(N)(=O)=O)cc21 [Sertraline Sulfonamide NH2, (5S,8S)-5-(3,4-dichlorophenyl)-8-(methylamino)-5,6,7,8-tetrahydronaphthalene-2-sulfonamide]",–,–,9.99 ± 4.4 µM,9.99 ± 4.4 µM,–,3.65 ± 2.3 µM,63.5 ± 6.4%,–,–,"CC50 (in vitro; CC50): > 13.4 µM; Emax [3, 9]: 63.5 ± 6.4%; IC50 ([3]; Huh-7, 48 h): 6.02 µM; Emax [3, 10]: 91%; IC50 ([3]; Huh-7, 72 h): 3.65 ± 2.3 µM; Synergy Score [2]: 0.49; TI (CC50/IC50) [2]: >2.226"
